Measured values as given in ChEMBL document CHEMBL1144455, “A small molecule-kinase interaction map for clinical kinase inhibitors” (Nat Biotechnol, 2005).

Tests used:
[1] = molecular target: Mitogen-activated protein kinase 10 (Homo sapiens, UniProt P53779)
[2] = molecular target: Tyrosine-protein kinase FRK (Homo sapiens, UniProt P42685)
[3] = molecular target: Dual specificity protein kinase CLK1 (Homo sapiens, UniProt P49759)
[4] = molecular target: Tyrosine-protein kinase Yes (Homo sapiens, UniProt P07947)
Tyrosine-protein kinase Yes, sequence (P07947 whole entry): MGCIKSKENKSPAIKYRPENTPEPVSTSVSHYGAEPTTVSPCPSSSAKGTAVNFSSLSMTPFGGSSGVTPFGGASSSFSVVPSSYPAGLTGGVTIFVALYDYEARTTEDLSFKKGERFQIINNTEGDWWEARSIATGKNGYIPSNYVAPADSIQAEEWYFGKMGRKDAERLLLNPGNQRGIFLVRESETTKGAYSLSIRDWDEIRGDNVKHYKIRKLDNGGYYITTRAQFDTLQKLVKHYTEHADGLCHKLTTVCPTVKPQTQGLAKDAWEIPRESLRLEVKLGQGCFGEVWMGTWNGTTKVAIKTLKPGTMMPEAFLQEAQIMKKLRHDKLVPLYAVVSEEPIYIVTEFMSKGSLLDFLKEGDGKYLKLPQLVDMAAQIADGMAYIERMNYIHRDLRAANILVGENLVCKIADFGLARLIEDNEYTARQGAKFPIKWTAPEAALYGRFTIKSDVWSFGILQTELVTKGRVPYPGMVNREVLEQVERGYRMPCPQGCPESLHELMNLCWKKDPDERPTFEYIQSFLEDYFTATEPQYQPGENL

[5] = molecular target: Tyrosine-protein kinase BTK (Homo sapiens, UniProt Q06187)
[6] = molecular target: Receptor tyrosine-protein kinase erbB-2 (Homo sapiens, UniProt P04626)
[7] = molecular target: Dual specificity protein kinase CLK3 (Homo sapiens, UniProt P49761)
Dual specificity protein kinase CLK3, sequence (P49761 whole entry): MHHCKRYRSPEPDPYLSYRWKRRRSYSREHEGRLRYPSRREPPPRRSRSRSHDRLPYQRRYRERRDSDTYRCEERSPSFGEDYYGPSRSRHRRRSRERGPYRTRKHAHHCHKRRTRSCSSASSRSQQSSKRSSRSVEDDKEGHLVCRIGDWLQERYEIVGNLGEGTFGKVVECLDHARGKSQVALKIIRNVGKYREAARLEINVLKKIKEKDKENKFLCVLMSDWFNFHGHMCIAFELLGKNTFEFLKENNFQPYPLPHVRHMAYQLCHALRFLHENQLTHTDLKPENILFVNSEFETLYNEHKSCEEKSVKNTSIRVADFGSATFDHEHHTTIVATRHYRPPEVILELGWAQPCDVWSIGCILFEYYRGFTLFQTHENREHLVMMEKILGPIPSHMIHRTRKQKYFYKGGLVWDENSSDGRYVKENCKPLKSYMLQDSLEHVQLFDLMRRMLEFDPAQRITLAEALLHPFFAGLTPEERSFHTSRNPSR

[8] = molecular target: Ephrin type-A receptor 5 (Homo sapiens, UniProt P54756)
Ephrin type-A receptor 5, sequence (P54756 whole entry): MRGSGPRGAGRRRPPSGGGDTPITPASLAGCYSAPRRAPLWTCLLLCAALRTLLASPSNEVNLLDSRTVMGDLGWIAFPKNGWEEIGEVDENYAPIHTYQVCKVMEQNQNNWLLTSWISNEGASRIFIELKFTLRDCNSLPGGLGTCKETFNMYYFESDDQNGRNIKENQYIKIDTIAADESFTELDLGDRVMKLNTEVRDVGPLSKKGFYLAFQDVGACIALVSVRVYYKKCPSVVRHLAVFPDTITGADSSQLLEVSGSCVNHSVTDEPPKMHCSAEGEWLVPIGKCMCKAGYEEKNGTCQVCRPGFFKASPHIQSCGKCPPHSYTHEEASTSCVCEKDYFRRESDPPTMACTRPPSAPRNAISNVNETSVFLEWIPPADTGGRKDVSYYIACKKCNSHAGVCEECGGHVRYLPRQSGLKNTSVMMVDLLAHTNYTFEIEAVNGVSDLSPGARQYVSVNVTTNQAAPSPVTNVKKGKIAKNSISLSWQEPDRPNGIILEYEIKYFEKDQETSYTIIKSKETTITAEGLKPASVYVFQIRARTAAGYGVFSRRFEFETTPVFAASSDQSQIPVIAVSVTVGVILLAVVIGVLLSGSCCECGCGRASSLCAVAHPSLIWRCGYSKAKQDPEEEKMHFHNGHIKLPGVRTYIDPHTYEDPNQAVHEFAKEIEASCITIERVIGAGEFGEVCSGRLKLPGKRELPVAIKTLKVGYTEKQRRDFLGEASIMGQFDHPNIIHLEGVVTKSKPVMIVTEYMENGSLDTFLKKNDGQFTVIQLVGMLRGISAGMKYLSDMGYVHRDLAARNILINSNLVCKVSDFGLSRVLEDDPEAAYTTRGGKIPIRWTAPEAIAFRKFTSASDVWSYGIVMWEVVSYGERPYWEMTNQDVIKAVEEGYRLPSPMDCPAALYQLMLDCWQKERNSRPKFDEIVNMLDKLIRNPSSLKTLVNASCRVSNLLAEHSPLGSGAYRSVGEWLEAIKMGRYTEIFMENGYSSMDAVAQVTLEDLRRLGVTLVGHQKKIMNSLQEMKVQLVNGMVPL

[9] = molecular target: Mitogen-activated protein kinase kinase kinase kinase 5 (Homo sapiens, UniProt Q9Y4K4)
[10] = molecular target: Tyrosine-protein kinase JAK2 (Homo sapiens, UniProt O60674)
Tyrosine-protein kinase JAK2, sequence (O60674 whole entry): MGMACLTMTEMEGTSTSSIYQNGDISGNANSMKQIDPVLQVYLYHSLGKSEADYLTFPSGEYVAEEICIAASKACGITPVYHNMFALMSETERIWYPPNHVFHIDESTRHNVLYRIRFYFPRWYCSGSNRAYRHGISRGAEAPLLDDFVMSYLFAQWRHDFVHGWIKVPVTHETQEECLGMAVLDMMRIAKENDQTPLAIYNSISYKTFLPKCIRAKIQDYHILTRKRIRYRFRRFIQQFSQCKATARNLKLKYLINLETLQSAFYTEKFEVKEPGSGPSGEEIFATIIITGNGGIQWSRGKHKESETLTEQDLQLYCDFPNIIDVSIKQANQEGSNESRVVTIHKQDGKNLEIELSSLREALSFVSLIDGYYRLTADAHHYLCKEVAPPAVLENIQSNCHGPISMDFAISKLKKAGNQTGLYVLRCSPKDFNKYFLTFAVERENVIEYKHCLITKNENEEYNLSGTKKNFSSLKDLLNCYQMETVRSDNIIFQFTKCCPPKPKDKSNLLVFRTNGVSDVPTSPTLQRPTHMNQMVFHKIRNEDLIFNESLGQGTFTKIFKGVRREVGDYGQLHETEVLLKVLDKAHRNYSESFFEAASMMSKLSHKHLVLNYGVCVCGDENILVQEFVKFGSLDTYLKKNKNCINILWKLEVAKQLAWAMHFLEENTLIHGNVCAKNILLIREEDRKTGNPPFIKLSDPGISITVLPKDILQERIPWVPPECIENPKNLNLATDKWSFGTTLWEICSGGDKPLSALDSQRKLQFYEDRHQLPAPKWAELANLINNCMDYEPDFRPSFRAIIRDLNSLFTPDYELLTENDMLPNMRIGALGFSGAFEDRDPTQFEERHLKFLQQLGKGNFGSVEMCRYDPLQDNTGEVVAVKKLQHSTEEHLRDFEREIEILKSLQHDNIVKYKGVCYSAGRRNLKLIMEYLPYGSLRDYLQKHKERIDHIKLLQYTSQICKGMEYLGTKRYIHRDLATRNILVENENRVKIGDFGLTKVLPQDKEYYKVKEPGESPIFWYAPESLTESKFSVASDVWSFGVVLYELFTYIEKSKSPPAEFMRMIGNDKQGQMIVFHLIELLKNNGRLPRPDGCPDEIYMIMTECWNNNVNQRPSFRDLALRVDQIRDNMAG

[11] = molecular target: T1, Membrane-associated tyrosine- and threonine-specific cdc2-inhibitory kinase (Homo sapiens, UniProt Q99640)
T1 sequence (Q99640 whole entry): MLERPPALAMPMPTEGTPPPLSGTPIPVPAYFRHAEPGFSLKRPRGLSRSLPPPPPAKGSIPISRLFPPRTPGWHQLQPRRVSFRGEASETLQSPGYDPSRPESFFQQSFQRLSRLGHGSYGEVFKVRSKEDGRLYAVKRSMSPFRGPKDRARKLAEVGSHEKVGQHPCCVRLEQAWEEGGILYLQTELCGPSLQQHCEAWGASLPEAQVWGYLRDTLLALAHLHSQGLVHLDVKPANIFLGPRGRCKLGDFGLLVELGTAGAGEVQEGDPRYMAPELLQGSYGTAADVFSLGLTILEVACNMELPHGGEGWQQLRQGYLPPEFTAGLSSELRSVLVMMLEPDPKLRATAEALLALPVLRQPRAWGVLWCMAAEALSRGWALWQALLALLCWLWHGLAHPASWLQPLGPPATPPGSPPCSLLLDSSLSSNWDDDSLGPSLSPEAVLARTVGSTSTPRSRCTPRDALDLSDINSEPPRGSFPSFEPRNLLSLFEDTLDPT

[12] = molecular target: Ribosomal protein S6 kinase alpha-5 (Homo sapiens, UniProt O75582)
[13] = molecular target: Calcium/calmodulin-dependent protein kinase type 1 (Homo sapiens, UniProt Q14012)
[14] = molecular target: T2, Aurora kinase A (Homo sapiens, UniProt O14965)
T2 sequence (O14965 whole entry): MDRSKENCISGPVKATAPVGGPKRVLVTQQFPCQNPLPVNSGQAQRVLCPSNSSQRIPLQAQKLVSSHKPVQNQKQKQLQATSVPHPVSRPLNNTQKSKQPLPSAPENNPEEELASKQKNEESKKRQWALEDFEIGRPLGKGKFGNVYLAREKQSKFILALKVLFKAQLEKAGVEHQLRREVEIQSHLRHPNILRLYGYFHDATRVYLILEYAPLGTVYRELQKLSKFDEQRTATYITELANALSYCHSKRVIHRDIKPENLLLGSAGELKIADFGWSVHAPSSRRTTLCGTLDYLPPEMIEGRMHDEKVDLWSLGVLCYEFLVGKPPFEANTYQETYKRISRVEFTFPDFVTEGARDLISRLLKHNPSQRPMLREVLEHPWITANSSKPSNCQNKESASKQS

[15] = molecular target: T3, Serine/threonine-protein kinase 4 (Homo sapiens, UniProt Q13043)
T3 sequence (Q13043 whole entry): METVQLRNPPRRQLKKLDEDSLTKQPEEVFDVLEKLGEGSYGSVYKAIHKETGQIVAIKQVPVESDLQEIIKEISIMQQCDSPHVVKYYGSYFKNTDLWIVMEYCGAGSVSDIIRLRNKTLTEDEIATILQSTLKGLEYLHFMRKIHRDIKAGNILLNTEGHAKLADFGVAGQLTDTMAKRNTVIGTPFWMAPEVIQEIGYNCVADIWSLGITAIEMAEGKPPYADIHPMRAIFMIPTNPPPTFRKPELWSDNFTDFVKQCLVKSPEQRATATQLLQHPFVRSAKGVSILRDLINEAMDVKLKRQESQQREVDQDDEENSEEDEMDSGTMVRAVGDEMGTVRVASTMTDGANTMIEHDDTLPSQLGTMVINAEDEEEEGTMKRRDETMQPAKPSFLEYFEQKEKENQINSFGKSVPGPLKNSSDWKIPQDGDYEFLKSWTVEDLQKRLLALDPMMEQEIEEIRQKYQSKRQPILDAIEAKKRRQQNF

[16] = molecular target: MAP kinase-interacting serine/threonine-protein kinase 2 (Homo sapiens, UniProt Q9HBH9)
MAP kinase-interacting serine/threonine-protein kinase 2, sequence (Q9HBH9 whole entry): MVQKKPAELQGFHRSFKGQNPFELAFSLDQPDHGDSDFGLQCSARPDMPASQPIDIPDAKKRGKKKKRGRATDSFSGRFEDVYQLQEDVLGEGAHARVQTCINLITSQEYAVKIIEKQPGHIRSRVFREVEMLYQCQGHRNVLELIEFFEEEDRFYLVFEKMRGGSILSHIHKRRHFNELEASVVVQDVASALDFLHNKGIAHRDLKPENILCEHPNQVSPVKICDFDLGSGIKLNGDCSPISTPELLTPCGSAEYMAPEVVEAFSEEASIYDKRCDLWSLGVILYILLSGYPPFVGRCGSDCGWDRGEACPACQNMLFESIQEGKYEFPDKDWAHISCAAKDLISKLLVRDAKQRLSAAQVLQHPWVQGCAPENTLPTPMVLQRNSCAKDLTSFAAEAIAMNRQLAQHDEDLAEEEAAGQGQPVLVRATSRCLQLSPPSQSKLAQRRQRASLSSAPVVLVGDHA

[17] = molecular target: Serine/threonine-protein kinase pim-2 (Homo sapiens, UniProt Q9P1W9)
Serine/threonine-protein kinase pim-2, sequence (Q9P1W9 whole entry): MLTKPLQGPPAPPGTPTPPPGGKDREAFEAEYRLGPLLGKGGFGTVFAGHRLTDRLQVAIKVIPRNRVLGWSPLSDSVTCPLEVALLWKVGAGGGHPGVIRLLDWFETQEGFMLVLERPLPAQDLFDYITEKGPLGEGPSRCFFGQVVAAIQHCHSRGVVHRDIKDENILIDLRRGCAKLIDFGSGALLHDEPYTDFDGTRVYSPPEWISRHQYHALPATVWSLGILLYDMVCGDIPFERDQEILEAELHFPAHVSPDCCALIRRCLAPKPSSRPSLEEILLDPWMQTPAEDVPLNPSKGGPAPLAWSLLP

[18] = molecular target: BMP-2-inducible protein kinase (Homo sapiens, UniProt Q9NSY1)
[19] = molecular target: Cyclin-dependent kinase 2 (Homo sapiens, UniProt P24941)
[20] = molecular target: Death-associated protein kinase 3 (Homo sapiens, UniProt O43293)
[21] = molecular target: T4, Serine/threonine-protein kinase 17A (Homo sapiens, UniProt Q9UEE5)
T4 sequence (Q9UEE5 whole entry): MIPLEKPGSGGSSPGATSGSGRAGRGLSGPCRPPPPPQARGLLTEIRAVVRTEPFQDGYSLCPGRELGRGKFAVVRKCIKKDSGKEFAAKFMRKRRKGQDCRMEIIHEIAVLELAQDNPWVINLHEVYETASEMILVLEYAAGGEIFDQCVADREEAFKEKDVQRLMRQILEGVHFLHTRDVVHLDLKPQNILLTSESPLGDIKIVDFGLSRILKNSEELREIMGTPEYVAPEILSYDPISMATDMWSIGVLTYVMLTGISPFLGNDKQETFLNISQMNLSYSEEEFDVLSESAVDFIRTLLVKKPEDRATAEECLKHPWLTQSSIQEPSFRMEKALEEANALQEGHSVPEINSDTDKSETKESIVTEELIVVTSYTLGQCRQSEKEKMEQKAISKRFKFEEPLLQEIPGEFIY

Dual specificity protein kinase CLK1, sequence (P49759 whole entry): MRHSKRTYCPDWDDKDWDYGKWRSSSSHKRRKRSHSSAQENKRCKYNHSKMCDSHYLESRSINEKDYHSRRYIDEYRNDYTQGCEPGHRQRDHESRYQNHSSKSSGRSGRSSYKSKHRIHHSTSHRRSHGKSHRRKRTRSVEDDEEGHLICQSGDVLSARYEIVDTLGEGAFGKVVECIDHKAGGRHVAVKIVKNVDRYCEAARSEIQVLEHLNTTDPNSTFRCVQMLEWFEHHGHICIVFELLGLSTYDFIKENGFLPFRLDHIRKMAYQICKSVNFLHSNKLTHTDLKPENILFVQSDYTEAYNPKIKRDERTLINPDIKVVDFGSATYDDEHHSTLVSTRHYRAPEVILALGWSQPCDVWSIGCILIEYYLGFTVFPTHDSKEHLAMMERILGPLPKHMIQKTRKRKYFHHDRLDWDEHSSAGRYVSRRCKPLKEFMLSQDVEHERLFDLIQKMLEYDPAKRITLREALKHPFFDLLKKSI
Mitogen-activated protein kinase 10, sequence (P53779 whole entry): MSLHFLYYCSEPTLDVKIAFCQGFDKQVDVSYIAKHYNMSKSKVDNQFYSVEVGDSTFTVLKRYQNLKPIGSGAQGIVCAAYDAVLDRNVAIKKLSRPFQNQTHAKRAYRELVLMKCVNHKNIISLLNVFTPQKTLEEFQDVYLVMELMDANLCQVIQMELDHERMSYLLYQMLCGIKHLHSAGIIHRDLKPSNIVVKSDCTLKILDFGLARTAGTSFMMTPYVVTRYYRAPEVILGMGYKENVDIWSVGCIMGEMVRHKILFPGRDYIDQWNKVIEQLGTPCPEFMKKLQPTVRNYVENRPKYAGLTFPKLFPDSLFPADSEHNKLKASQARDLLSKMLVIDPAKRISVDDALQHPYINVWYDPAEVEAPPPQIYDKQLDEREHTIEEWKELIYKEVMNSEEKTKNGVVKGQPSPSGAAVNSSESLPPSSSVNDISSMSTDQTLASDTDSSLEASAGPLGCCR

For `Oc1ccc(-c2nc(-c3ccc(F)cc3)c(-c3ccncc3)[nH]2)cc1` [SB-202190], the Kd [1] was 0.051 µM and the Kd [2] was 6 µM.
Compound `CCOc1cc2ncc(C#N)c(Nc3ccc(F)c(Cl)c3)c2cc1NC(=O)/C=C/CN(C)C` [PELITINIB] has a Kd [3] of 1 µM, a Kd [4] of 0.84 µM and a Kd [5] of 1.5 µM. The Kd [6] was 0.077 µM, the Kd [7] was 2.1 µM and the Kd [8] was 0.71 µM. For the same compound, the Kd [9] was 0.0037 µM, the Kd [10] was 2 µM and the Kd [11] was 0.93 µM.
`Oc1c2ccccc2c2c3c(cccc13)N=N2` [SP-600125] showed a Kd [12] of 1.7 µM, a Kd [13] of 4.1 µM and a Kd [14] of 0.98 µM. For the same compound, the Kd [15] was 2.2 µM, the Kd [16] was 1 µM and the Kd [17] was 0.46 µM. The Kd [18] was 0.025 µM, the Kd [19] was 3.2 µM and the Kd [20] was 0.41 µM. For the same compound, the Kd [21] was 2.1 µM.
